Test results as given in ChEMBL document CHEMBL3351403, “Lead identification of benzimidazolone and azabenzimidazolone arylsulfonamides as CC-chemokine receptor 4 (CCR4) antagonists” (Bioorg Med Chem, 2014).

Test: Lipophilicity, log D of the compound at pH 7.4 by chromatography
Format: physicochemical
Conditions: buffer

Point of comparison: `COc1cc2c(cc1NS(=O)(=O)c1cccc(Cl)c1Cl)[nH]c(=O)n2CCN(C)C`, chromatographic logD 2.6. Against it:
- COc1cccc2c1c(NS(=O)(=O)c1cccc(Cl)c1Cl)nn2C — higher, 5.3
- COc1cc2[nH]c(=O)[nH]c2cc1NS(=O)(=O)c1cccc(Cl)c1Cl — higher, 3.2
- COc1cc2c(cc1NS(=O)(=O)c1cccc(Cl)c1Cl)[nH]c(=O)n2C — higher, 3.8
- COc1cc2[nH]c(=O)n(C)c2cc1NS(=O)(=O)c1cccc(Cl)c1Cl — higher, 3.7
- COc1cc2c(cc1NS(=O)(=O)c1cccc(Cl)c1Cl)n(C)c(=O)n2C — higher, 4.4
- COc1cc2c(cc1NS(=O)(=O)c1cccc(Cl)c1Cl)[nH]c(=O)n2CC(N)=O — within 0.2 log units, 2.5
- COc1cc2[nH]c(=O)n(CC(N)=O)c2cc1NS(=O)(=O)c1cccc(Cl)c1Cl — lower, 2.4
- COc1cc2c(cc1NS(=O)(=O)c1cccc(Cl)c1Cl)[nH]c(=O)n2C(C)C — higher, 4.7
- COc1cc2c(cc1NS(=O)(=O)c1cccc(Cl)c1Cl)[nH]c(=O)n2C1COC1 — higher, 4.6
- CCCn1c(=O)[nH]c2cc(NS(=O)(=O)c3cccc(Cl)c3Cl)c(OC)cc21 — higher, 3.2
- COc1cc2c(cc1NS(=O)(=O)c1cccc(Cl)c1Cl)[nH]c(=O)n2C(CO)CO — lower, 2.1
- COc1cc2c(cc1NS(=O)(=O)c1cccc(Cl)c1Cl)[nH]c(=O)n2C1CNC1 — higher, 3
- COc1cc2c(cc1NS(=O)(=O)c1cccc(Cl)c1Cl)[nH]c(=O)n2C1CN(C(C)=O)C1 — higher, 3.7
- COc1cc2[nH]c(=O)[nH]c2nc1NS(=O)(=O)c1cccc(Cl)c1Cl — lower, 2.4
- COc1nc2[nH]c(=O)[nH]c2cc1NS(=O)(=O)c1cccc(Cl)c1Cl — higher, 3.2
